From article PMC6170555, “Synthesis of novel (E)-1-(2-(2-(4(dimethylamino) benzylidene) hydrazinyl)-4-methylthiazol-5-yl)ethanone derivatives as ecto-5′-nucleotidase inhibitors” (Royal Society Open Science, 2018)

Legend:
r-e5′NT = target: T1, r-e5′NT (Rattus norvegicus, UniProt P21588); experiment: Ecto-5′-nucleotidase inhibition assay (capillary electrophoresis), rat enzyme; format: biochemical; details: for inhibition at 100 µM: compound at 0.1 mM, read-out: r-e5′NT percentage inhibition ± s.e.m.; for inhibition at 100 µM / IC50: mean ± s.e.m., n = 3; for inhibitory potential toward r-e5′NT after initial screening: initial screening at 0.1 mM; for IC50: substrate AMP 500 µM
T1 construct: made in house; host or cells: COS-7 cells, transiently transfected; sonicated extract / membrane fraction
T1 sequence (P21588 29-576): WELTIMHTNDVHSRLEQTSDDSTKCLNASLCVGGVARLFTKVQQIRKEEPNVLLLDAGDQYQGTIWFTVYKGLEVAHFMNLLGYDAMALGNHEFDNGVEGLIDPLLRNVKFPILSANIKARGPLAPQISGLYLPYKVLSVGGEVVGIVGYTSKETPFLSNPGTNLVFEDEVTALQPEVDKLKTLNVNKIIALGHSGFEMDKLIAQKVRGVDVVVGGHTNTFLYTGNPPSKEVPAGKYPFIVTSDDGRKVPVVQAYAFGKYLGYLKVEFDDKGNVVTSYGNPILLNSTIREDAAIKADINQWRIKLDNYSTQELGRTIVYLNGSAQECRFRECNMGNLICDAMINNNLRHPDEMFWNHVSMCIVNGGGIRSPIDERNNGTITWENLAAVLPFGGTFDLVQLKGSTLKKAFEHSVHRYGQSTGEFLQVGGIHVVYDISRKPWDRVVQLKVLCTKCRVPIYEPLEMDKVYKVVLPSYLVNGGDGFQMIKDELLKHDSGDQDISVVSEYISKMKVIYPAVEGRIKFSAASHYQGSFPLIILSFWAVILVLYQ
Protocol: (§1) The plasmids expressing e5′NT, either rat or human, were used to transfect the COS-7 cells through lipofectamine. The confluent cells were allowed to incubate in DMEM/F-12 having plasmid DNA (6 µg) and transfecting reagent (24 µl) for 5 h at ambient temperature (37°C). To discontinue transfection, a specified volume of DMEM/F-12 was added, containing FBS (20%). These cells were then harvested after 2–3 days.
(§2) The transfected cells were separated from harvesting buffer (45 mM Tris buffer, 95 mM NaCl, and 0.1 mM PMSF, pH 7.5) through scraping, followed by washing with Tris buffer and then allowed to centrifuge by spinning at 300 r.p.m. at 4°C for 5 min [30]. Finally, the cells remained suspended in harvesting buffer solution containing aprotinin (10 µg ml^−1). As a result of sonication, the produced cellular debris was removed by cold centrifugation operated at 300 r.p.m. for 10 min. Glycerol (7.5%) was mixed with the resultant supernatant. The Bradford microplate assay was employed for estimation of protein concentration where albumin was used as a standard.
(§3) The e5′NT inhibition assay was performed with respect to our previously described procedure on P/ACE MDQ capillary electrophoresis system (Beckman Instruments, Fullerton, CA, USA) provided with UV detection system. The samples were prepared in the assay buffer (1 mM CaCl2, 10 mM Tris HCl and 2 mM MgCl2, pH 7.4) and analysed at 0.1 mM concentration. The total assay volume (100 µl) comprises sample (10 µl), 10 µl of h-e5′NT (6.94 µg ml^−1) protein extract or r-e5′NT (7.17 µg ml^−1) and 70 µl of assay buffer. The above mixture was allowed to incubate at 37°C for 10 min. Subsequently, biochemical reaction was started with the addition of substrate (10 µl) and AMP (500 µM). The mixture was incubated again for 30 min at 37°C. The enzyme-substrate reaction was stopped by thermal denaturation for the duration of 20 min by placing the mixture in a water bath at 99°C. Then, 50 µl of obtained mixture was filled into CE mini vials and injected with 0.5 psi into the capillary in 5 s, whereas 15 kV was set to split-up substrate and product peaks. […] Therefore, successive dilution of each active compound was made and different inhibitor concentrations were assayed to obtain the dose–response curve against both enzymes. All experiments were conducted thrice. The nonlinear regression analysis program (PRISM 5.0) was employed to calculate IC50 value.

h-e5′NT = target: T2, h-e5′NT (Homo sapiens, UniProt P21589); experiment: Ecto-5′-nucleotidase inhibition assay (capillary electrophoresis), human enzyme; format: biochemical; details: for inhibition at 100 µM: compound at 0.1 mM, read-out: h-e5′NT percentage inhibition ± s.e.m.; for inhibition at 100 µM / IC50: mean ± s.e.m., n = 3; for inhibitory potential toward h-e5′NT after initial screening: initial screening at 0.1 mM; for IC50: substrate AMP 500 µM
T2 construct: made in house; host or cells: COS-7 cells, transiently transfected; sonicated extract / membrane fraction
T2 sequence (P21589 27-574): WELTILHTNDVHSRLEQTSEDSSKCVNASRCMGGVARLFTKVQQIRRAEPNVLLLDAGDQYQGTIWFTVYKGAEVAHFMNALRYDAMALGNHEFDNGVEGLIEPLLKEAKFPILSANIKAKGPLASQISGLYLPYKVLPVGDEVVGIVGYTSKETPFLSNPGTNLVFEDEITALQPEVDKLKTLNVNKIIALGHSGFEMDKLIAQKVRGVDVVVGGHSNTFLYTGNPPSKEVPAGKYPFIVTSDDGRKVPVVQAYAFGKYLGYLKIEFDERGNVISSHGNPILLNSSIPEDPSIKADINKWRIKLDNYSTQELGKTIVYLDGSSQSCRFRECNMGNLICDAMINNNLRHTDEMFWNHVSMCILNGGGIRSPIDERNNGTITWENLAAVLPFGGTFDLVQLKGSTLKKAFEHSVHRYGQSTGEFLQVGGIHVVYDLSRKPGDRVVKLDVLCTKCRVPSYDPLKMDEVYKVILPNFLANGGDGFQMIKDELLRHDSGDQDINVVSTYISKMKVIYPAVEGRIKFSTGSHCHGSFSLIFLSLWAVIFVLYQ
Protocol: as §1, §2, §3

| SMILES | inhibition at 100 µM (r-e5′NT) [%] | inhibitory potential toward r-e5′NT after initial screening (r-e5′NT) | inhibition at 100 µM (h-e5′NT) [%] | inhibitory potential toward h-e5′NT after initial screening (h-e5′NT) | IC50 (r-e5′NT) [µM] | IC50 (h-e5′NT) [µM] | potency against h-e5′NT relative to r-e5′NT (h-e5′NT; ratio of IC50 r-e5′NT / h-e5′NT) [fold] | inhibition against h-e5′NT compared with positive control sulfamic acid (h-e5′NT; ratio of IC50 sulfamic acid / compound) [fold] |
| --- | --- | --- | --- | --- | --- | --- | --- | --- |
| CC(=O)c1sc(N/N=C/c2ccco2)nc1C [3c, (E)-1-(2-(2-(furan-2-ylmethylene)hydrazinyl)-4-methylthiazol-5-yl)ethanone] | 15.3 ± 2.78 | no inhibitory potential | 38.1 ± 5.47 | no inhibitory potential |  |  |  |  |
| NS(=O)(=O)O [sulfamic acid, reference compound] |  |  |  |  | 77.3 ± 7.01 | 42.1 ± 7.8 |  |  |
| CC(=O)c1sc(N/N=C/c2cc3ccccc3[nH]2)nc1C [3f, (E)-1-(2-(2-((1H-indol-2-yl)methylene)hydrazinyl)-4-methylthiazol-5-yl)ethanone] | 32.7 ± 1.62 |  |  |  |  | 6.19 ± 0.32 |  |  |
| CC(=O)c1sc(N/N=C/c2cccnc2)nc1C [3a, (E)-1-(4-methyl-2-(2-(pyridin-3-ylmethylene)hydrazinyl)thiazol-5-yl)ethanone] |  |  |  |  | 7.81 ± 0.89 | 0.32 ± 0.03 | 24 | 132 |
| CC(=O)c1sc(N/N=C/c2ccc(C)o2)nc1C [3d, (E)-1-(4-methyl-2-(2-((5-methylfuran-2-yl)methylene)hydrazinyl)thiazol-5-yl)ethanone] | 12.3 ± 3.91 | no inhibitory potential | 43.6 ± 1.18 | no inhibitory potential |  |  |  |  |
| CC(=O)c1sc(N/N=C/c2ccc[nH]2)nc1C [3e, (E)-1-(2-(2-((1H-pyrrol-2-yl)methylene)hydrazinyl)-4-methylthiazol-5-yl)ethanone] | 10.8 ± 4.25 |  |  |  |  | 3.36 ± 0.12 |  |  |
| CC(=O)c1sc(N/N=C/c2ccc(N(C)C)cc2)nc1C [3b, (E)-1-(2-(2-(4-(dimethylamino)benzylidene)hydrazinyl)-4-methylthiazol-5-yl)ethanone] |  |  |  |  | 10.1 ± 0.58 | 0.56 ± 0.07 |  |  |
